Results published in BindingDB's records for patent US10167299 (Shanghai Institute of Material Medica, Chinese Academy of …, 2019).

Target: C-C chemokine receptor type 5 (Homo sapiens, UniProt P51681)
Assay: Calcium Flux Inhibition Experiment
Procedure: 1. […] The medium in each well into which cells were innoculated was removed and 40 μl/well of freshly prepared dye was added. […] The dye was removed. […] FlexStation II was used for detection.

Chain of C-C chemokine receptor type 5 (P51681 whole entry): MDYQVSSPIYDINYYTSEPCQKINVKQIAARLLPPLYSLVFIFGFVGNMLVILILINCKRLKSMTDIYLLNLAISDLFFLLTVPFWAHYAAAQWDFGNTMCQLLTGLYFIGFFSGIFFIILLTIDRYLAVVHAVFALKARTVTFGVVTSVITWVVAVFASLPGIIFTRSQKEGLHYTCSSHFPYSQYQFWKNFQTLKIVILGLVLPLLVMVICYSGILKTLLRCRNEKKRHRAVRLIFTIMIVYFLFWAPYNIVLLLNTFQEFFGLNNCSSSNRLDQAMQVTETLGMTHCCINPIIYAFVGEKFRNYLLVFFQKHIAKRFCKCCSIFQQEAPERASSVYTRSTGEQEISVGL

For `CC(=O)N[C@@H](CCN1C2CCC1CC(n1c(C)nnc1C(C)C)C2)c1csc2ccccc12` (stereo partly specified) [US10167299, Example 28], the IC50 was 0.068 µM.
